Results published in patent publication US10463048B2, “Plant disease control composition and plant disease control method” (SUMITOMO CHEMICAL COMPANY, LIMITED, priority 2015, dated 2019).

Key:
Assay type in all cases: in vivo
Conditions in all cases: 20 days after
[1] = tested on: damping-off fungus (Rhizoctonia solani); assay: Test Example 21: corn seed treatment, damping-off pot test
Method: A chemical liquid wherein penflufen is dissolved in acetone/Tween 20 (weight ratio=95:5) and a chemical liquid wherein fluxapyroxad is dissolved in acetone/Tween 20 (weight ratio=95:5) were prepared independently. In a rotary seed treatment machine (trade name: HEGE11, manufactured by WINTERSTEIGER), corn seeds (variety: yellow dent corn) were treated by smearing treatment using one of these chemical liquid and the flowable formulation of the present bacterial strain obtained in Formulation Example 13, so that the corn seeds retain the present bacterial strain and/or the compound in the amount shown in Table 6.
Cultivation was carried out in a greenhouse under irrigation (“treated compartment”). The plants were investigated 20 days after for the number of diseased plants, and the disease incidence was calculated by the following “Equation 1”. Similar procedures were conducted using untreated corn seeds, instead of the treated corn seeds, as described above for the treated compartment (“untreated compartment”). The plants were investigated 20 days after for the number of diseased plants, and the disease incidence was calculated by the following “Equation 1”. The control value of the treated compartment was calculated by the following equation “Equation 2”, based on the disease incidences of the treated compartment and the untreated compartment. Disease incidence (%)=100×(number of diseased plant/total number of seeded seeds): Equation 1 Control value (%)=100×[(disease incidence in untreated compartment−disease incidence in treated compartment)/disease incidence in untreated compartment]: Equation 2
(§1) If the effect by the combination of two active ingredients is greater than that of the estimated value E, which is calculated by the Colby's equation as follows, the effect is regarded as synergistic. E=X+Y−X·Y/100 wherein, E=Control value when using the mixture of the active ingredients A and B at the concentrations m and n (amount of the active ingredient), respectively. X=Control value when using the active ingredient A at the concentration m (amount of the active ingredient). Y=Control value when using the active ingredient B at the concentration n (amount of the active ingredient).

[2] = tested on: phytopathogenic Fusarium (Fusarium sp.); assay: Test Example 23: soybean seed treatment, Fusarium pot test
Method: as §1
Boscalid was dissolved in acetone/Tween 20 (weight ratio=95:5) to prepare a chemical liquid. In a rotary seed treatment machine (trade name: HEGE11, manufactured by WINTERSTEIGER), soybean seeds (variety:“Hatayutaka”) were treated by smearing treatment using the chemical liquid and the flowable formulation of the present bacterial strain obtained in Formulation Example 13 and sedaxane flowable formulation (43.7% flowable formulation, trade name: Vibrance, Syngenta Crop Protection LLC), so that the soybean seeds retain the bacteria, sedaxane and boscalid in the amount shown in Table 8.
Cultivation was carried out in a greenhouse under irrigation (“treated compartment”). The plants were investigated 20 days after for the number of diseased plants, and the disease incidence was calculated by the following “Equation 1”. Also, similar procedures were conducted using untreated soybean seeds, instead of the treated soybean seeds, as described above for the treated compartment (“untreated compartment”).
The plants were investigated 20 days after for the number of diseased plants, and the disease incidence was calculated by the following “Equation 1”. The control value of the treated compartment was calculated by the following equation “Equation 2”, based on the disease incidences of the treated compartment and the untreated compartment. Disease incidence (%)=100×(number of diseased plant/total number of seeded seeds): Equation 1 Control value (%)=100×[(disease incidence in untreated compartment−disease incidence in treated compartment)/disease incidence in untreated compartment]: Equation 2

[3] = tested on: phytopathogenic Fusarium (Fusarium sp.); assay: Test Example 22: soybean seed treatment, Fusarium pot test
Method: If the effect by the combination of two active ingredients is greater than that of the estimated value E, which is calculated by the Colby's equation as follows, the effect is regarded as synergistic. E=X+Y−X·Y/100 wherein, E=Control value when using the mixture of the active ingredients A and B at the concentrations m and n (amount of the active ingredient), respectively. X=Control value when using the active ingredient A at the concentration m (amount of the active ingredient). Y=Control value when using the active ingredient B at the concentration n (amount of the active ingredient). […]
Cultivation was carried out in a greenhouse under irrigation (“treated compartment”). The plants were investigated 20 days after for the number of diseased plants, and the disease incidence was calculated by the following “Equation 1”. […] The plants were investigated 20 days after for the number of diseased plants, and the disease incidence was calculated by the following “Equation 1”. The control value of the treated compartment was calculated by the following equation “Equation 2”, based on the disease incidences of the treated compartment and the untreated compartment. […]

[4] = corn seeds retaining 0.005 g/Kg seeds of compound alone
[5] = soybean seeds retaining 0.05 g/Kg seeds of compound alone

Structure (SMILES): Cc1nn(C)c(F)c1C(=O)Nc1ccccc1C(C)CC(C)C (stereo not shown) [Penflufen, penflufen]
- Controlling Effect [1, 4]: 25%
- Controlling Effect ([1]; corn seeds retaining 0.01 g/Kg seeds of compound alone): 42%

Structure (SMILES): O=C(Nc1ccccc1-c1ccc(Cl)cc1)c1cccnc1Cl [Boscalid, boscalid]
- Controlling Effect [2, 5]: 23%
- Controlling Effect ([2]; soybean seeds retaining 0.1 g/Kg seeds of compound alone): 47%

Structure (SMILES): O=C(NCCc1ncc(C(F)(F)F)cc1Cl)c1ccccc1C(F)(F)F [Fluopyram, fluopyram]
- Controlling Effect ([3]; soybean seeds retaining 0.025 g/Kg seeds of compound alone): 29%
- Controlling Effect [3, 5]: 44%

Structure (SMILES): Cn1cc(C(=O)Nc2ccccc2-c2cc(F)c(F)c(F)c2)c(C(F)F)n1 [Fluxapyroxad, fluxapyroxad]
- Controlling Effect ([1]; corn seeds retaining 0.0025 g/Kg seeds of compound alone): 31%
- Controlling Effect [1, 4]: 39%

Structure (SMILES): Cn1cc(C(=O)Nc2ccccc2C2CC2C2CC2)c(C(F)F)n1 (stereo not shown) [Sedaxane, sedaxane]
- Controlling Effect ([2]; soybean seeds retaining 0.005 g/Kg seeds of compound alone): 32%
- Controlling Effect ([2]; soybean seeds retaining 0.01 g/Kg seeds of compound alone): 35%
